From PMC8745710, “Biological Evaluation and Molecular Docking Studies of Novel 1,3,4-Oxadiazole Derivatives of 4,6-Dimethyl-2-sulfanylpyridine-3-carboxamide” (International Journal of Molecular Sciences, 2022) come the findings set out here.

Read-outs that look alike come from different tables or passages of the source.

One assay has as its system LoVo cell line. Kind of assay: Intracellular ROS level (DCFH-DA), LoVo cells. Particulars: Homo sapiens, 4 h, compound 100 μM. Type of assay: cell-based. On the procedure: (§1) Two cell lines were chosen for investigations: V79 (Chinese hamster lung fibroblasts) and LoVo. V79 normal cells are widely used as the cell line tested in the studies of the oxidative stress. These cells are a living system model to explain the mechanism of ROS effects caused by varied compounds [73].
(§2) First, the tested compounds (in concentration of 100 μM) were added to the cell cultures and cells were incubated for 4 h. Then cells were washed and incubated with DCFH-DA (non-fluorescent probe) in dark at 37 °C for 2 h at CO2 [79]. Non-fluorescent, non-polar DCFH-DA (2′7′-dichlorodihydrofluorescein diacetate) at concentration of 25 μM was used as a marker of oxidative stress to determine the intracellular ROS levels. […] In this time, DCFH-DA which penetrated into the cells, was hydrolyzed by esterases to polar, non-fluorescent DCFH (2′7′-dichlorodihydrofluorescein) and then oxidized in the presence of ROS (reactive oxygen species) to fluorescent DCF (2′7′-dichlorofluorescein). DCF was measured using Varioscan LUX microplate reader (Thermo Fisher Scientific, Waltham, MA, USA) at λex = 485 nm and λem = 535 nm.
E is the culture with the tested compound and E0 is the negative control without the compound. The routine statistical methods: two-way analysis of variance ANOVA as well as Tukey’s post-hoc test were used. It allowed us to determine the statistical significance of results, where p < 0.05 was set as significant. The statistical indicators were estimated using Statistica 13.3 software.

A further assay has as its system V79 cell line. The assay can be described thus: Intracellular ROS level (DCFH-DA), V79 cells. Particulars: Cricetulus griseus, 4 h, V79, compound 100 μM. Type of assay: cell-based, Chinese hamster. On the procedure: as §1
as §2, with “nm. Then results were presented as E/E0 where E is test sample value and E0—control value.” for “nm.”
[…] E is the culture with the tested compound and E0 is the negative control without the compound. The routine statistical methods: two-way analysis of variance ANOVA as well as Tukey’s post-hoc test were used. It allowed us to determine the statistical significance of results, where p < 0.05 was set as significant. The statistical indicators were estimated using Statistica 13.3 software.

The subject of assay [1] is LoVo/Dx (drug resistant subline of LoVo). The assay can be described thus: MTT assay, LoVo/Dx. Type of assay: cell-based. Conditions: Homo sapiens, 48 h incubation, read-out: IC50 [µM] ± SD LoVo/Dx. The source says:
(§3) The MTT (3-[4,5-dimethylthiazol-2-yl]-2,5-diphenyl tetrazolium bromide) assay was used to determine the cytotoxicity of tested compounds towards different cell lines: normal human dermal fibroblasts (NHDF), kidney epithelial cells (VERO), fibroblasts from Chinese hamster lung (V79) and four human cancer cells: A549 (pulmonary basal cell alveolar adenocarcinoma), MCF-7 (breast adenocarcinoma), LoVo (colon adenocarcinoma), and its drug resistant subline LoVo/Dx. The cell lines used in this study express COX-1 and COX-2. The LoVo line expressed COX-1, the LoVo/Dx subline express both COX-1 and COX-2 [61].
Each cell line was grown in the culture media recommended by supplier. Before the test they were detached with trypsin/EDTA solution, then to neutralize the effect of Trypsin/EDTA solution, FBS containing medium was used. After centrifugation the cells were stained with 0.4% solution of trypan blue, counted and inspected for viability using microscope. […] The number of cells was 2 × 10^3 cells per well. The tested compounds with different concentrations (5, 10, 20, 50, 100 µM) were dissolved in DMSO and then added to the cells (the final DMSO concentration was 0.1%). The cultures were incubated for another 48 h. After that time the cells were collected to be used in tests.
MTT assay was used to find out how tested compounds influence the metabolic activity of investigated cell lines. The cells were incubated with tested compounds. […] The medium was removed again, and formazan crystals were dissolved in isopropanol.
For orientation: Formazan colour is commonly taken as a measure of viable cells.

The test system of assay [2] is VERO (kidney epithelial cells). The assay can be described thus: MTT assay, VERO. Type of assay: cell-based. Conditions: 48 h incubation.
Excerpt: as §3
(§4) Each cell line was grown in the culture media recommended by supplier. Before the test they were detached with trypsin/EDTA solution, then to neutralize the effect of Trypsin/EDTA solution, FBS containing medium was used. After centrifugation the cells were stained with 0.4% solution of trypan blue, counted and inspected for viability using microscope. In the end, cells were inserted into 96-well culture plates and incubated in CO2 incubator (37 °C, 24 h). The number of cells was 2 × 10^3 cells per well. The tested compounds with different concentrations (5, 10, 20, 50, 100 µM) were dissolved in DMSO and then added to the cells (the final DMSO concentration was 0.1%). The cultures were incubated for another 48 h. After that time the cells were collected to be used in tests.
(§5) MTT assay was used to find out how tested compounds influence the metabolic activity of investigated cell lines. The cells were incubated with tested compounds. After removing of supernatant, 1 mg/mL of MTT solution in MEM was added to the plate (to each well) and then the plates were incubated at 37 °C for 2 h. The medium was removed again, and formazan crystals were dissolved in isopropanol. A Varioscan LUX microplate reader (Thermo Fisher Scientific, Waltham, MA, USA) was used to measure absorbance at 570 nm.

Assay [3] deals with V79 (fibroblasts from Chinese hamster lung). The assay can be described thus: MTT assay, V79. Type of assay: cell-based. Particulars: Cricetulus griseus, Fibroblast, 48 h incubation, read-out: IC50 [µM] ± SD V79.
Excerpt: as §3, §4, §5

For assay [4], the system named is NHDF (normal human dermal fibroblasts). Kind of assay: MTT assay, NHDF. Format: cell-based. Particulars: 48 h incubation, read-out: IC50 [µM] ± SD NHDF.
Excerpt: as §3, §4, §5

The subject of assay [5] is LoVo (colon adenocarcinoma). Kind of assay: MTT assay, LoVo. Type of assay: cell-based. Conditions: Homo sapiens, 48 h incubation, read-out: IC50 [µM] ± SD LoVo.
Excerpt: as §3, §4, §5

The test system of assay [6] is A549 (pulmonary basal cell alveolar adenocarcinoma). The assay can be described thus: MTT assay, A549. Particulars: Homo sapiens, 48 h incubation, read-out: IC50 [µM] ± SD A549. Type of assay: cell-based.
Excerpt: as §3, §4, §5

The mark [7] stands for this setting: with H2O2 (100 μM, 30 min), n = 5, read-out: ROS scavenging activity, Mean E/E0 ± SD, with H2O2.
The mark [8] stands for this setting: without H2O2, n = 5, read-out: ROS scavenging activity, Mean E/E0 ± SD, without H2O2.

For the compound `O=C1O[C@H]([C@@H](O)CO)C(O)=C1O` [Ascorbic acid, ascorbic acid, reference compound], the activity at 100 µM worked out at 32 ± 9% in the assay with LoVo cell line (setting [7]), 89 ± 11% in the assay with LoVo cell line (setting [8]), 22 ± 12% in the assay with V79 cell line (setting [7]) and 83 ± 13% in the assay on V79 cell line (setting [8]).
Take `Cc1cnc(NC(=O)C2=C(O)c3ccccc3S(=O)(=O)N2C)s1` [Meloxicam, meloxicam, reference compound]: the figures for the IC50 in assay [1], in assay [3] and in assay [4] were 142 ± 9.46 µM, 201 ± 17.8 µM and 196 ± 35.2 µM, respectively. In addition, the activity at 100 µM with LoVo cell line (setting [7]) was determined as 89 ± 16%; with V79 cell line (setting [7]), 85 ± 18%; with V79 cell line (setting [8]) it was 115 ± 19%. For the same compound, in assay [2], the “IC50 [µM] ± SD VERO” value is “no toxicity”.
Take `CN1C(C(=O)Nc2ccccn2)=C(O)c2ccccc2S1(=O)=O` [Piroxicam, piroxicam, reference compound]: the IC50 came out at 122 ± 10.2 µM in assay [5]; 126 ± 11.2 µM in assay [1]; 110 ± 28.2 µM in assay [6]; 213 ± 23.2 µM in assay [3]; 162 ± 22.9 µM in assay [4]. For the same compound, the activity at 100 µM was found to be 81 ± 19% with LoVo cell line (setting [7]), 72 ± 19% with LoVo cell line (setting [8]), 67 ± 17% in the assay on V79 cell line (setting [7]) and 98 ± 17% with V79 cell line (setting [8]). Moreover, the “IC50 [µM] ± SD VERO” value in assay [2] is listed as “no toxicity”.
Turning to `Cc1c(C)c2c(c(C)c1O)CCC(C)(C(=O)O)O2` (stereo not shown) [Trolox, trolox, reference compound], the activity at 100 µM with LoVo cell line (setting [7]) was found to be 29 ± 15%; in the assay with LoVo cell line (setting [8]) it was 85 ± 13%; in the assay on V79 cell line (setting [7]), 15 ± 8%; with V79 cell line (setting [8]), 71 ± 5%.
